Experimental findings from ChEMBL document CHEMBL4017547, “Influences of Histidine-1 and Azaphenylalanine-4 on the Affinity, Anti-inflammatory, and Antiangiogenic Activities of Azapeptide Cluster of Differentiation 36 Receptor Modulators” (J Med Chem, 2017) are described below.

Series [1] concerns the target Platelet glycoprotein 4 (Rattus norvegicus, UniProt Q07969). As to the kind of experiment: Inhibition of photoactivatable [125I]-Tyr-Bpa-Ala-hexarelin binding to CD36 in Sprague-Dawley rat heart membranes after 60 mins by SDS-PAGE analysis. The series is classed as cell membranes, Membrane.
For series [2], the target named is Platelet glycoprotein 4 (Mus musculus) (UniProt Q08857). As to the kind of experiment: Modulation of CD36 in mouse J774A.1 cells assessed as inhibition of R-FSL1-induced NO over production at 1 uM preincubated for 1 hr followed by overnight R-FSL1 stimulation by DAN-fluorescence assay relative to control. The series is classed as cell-based.
Series [3] in a line: Pro-angiogenic activity in mouse sclera/choroid/retinal pigment epithelium complex assessed as increase in microvascular sprouting at 1 uM after 24 hrs by microscopic analysis. The series is classed as ADME.
In series [4] the target is Platelet glycoprotein 4 (Rattus norvegicus) (UniProt Q07969). As to the kind of experiment: Inhibition of photoactivatable [125I]-Tyr-Bpa-Ala-hexarelin binding to CD36 in Sprague-Dawley rat heart membranes after 60 mins by SDS-PAGE analysis relative to H-His-D-Trp-Ala-aza(3-hydroxy)Phe-D-Phe-Lys-NH2. As to conditions: Membrane. The series is classed as cell membranes.

The target in series [5] is Platelet glycoprotein 4 (Mus musculus) (UniProt Q08857). As to the kind of experiment: Modulation of CD36 in mouse […] cells assessed as inhibition of R-FSL1-induced NO over production at 1 uM preincubated for 1 hr followed by overnight R-FSL1 stimulation by DAN-fluorescence assay relative to control. The series is classed as cell-based.

Active and inactive are the calls of the source. The rule behind the calls is not given here.

Platelet glycoprotein 4 (Mus musculus), sequence (Q08857 whole entry): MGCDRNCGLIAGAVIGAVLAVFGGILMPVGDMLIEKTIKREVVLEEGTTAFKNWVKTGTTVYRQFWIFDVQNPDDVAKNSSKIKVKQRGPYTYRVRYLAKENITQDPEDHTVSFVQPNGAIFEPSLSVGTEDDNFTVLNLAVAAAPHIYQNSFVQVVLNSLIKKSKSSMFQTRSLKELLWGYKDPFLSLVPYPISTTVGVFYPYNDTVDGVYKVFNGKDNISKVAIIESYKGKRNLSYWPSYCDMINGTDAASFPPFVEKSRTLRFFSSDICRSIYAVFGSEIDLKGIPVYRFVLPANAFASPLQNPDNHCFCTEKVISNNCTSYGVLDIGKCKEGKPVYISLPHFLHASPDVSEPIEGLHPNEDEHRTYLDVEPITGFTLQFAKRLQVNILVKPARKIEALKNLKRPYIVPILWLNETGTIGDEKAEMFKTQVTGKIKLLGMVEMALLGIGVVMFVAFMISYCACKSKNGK
Platelet glycoprotein 4 (Rattus norvegicus), sequence (Q07969 whole entry): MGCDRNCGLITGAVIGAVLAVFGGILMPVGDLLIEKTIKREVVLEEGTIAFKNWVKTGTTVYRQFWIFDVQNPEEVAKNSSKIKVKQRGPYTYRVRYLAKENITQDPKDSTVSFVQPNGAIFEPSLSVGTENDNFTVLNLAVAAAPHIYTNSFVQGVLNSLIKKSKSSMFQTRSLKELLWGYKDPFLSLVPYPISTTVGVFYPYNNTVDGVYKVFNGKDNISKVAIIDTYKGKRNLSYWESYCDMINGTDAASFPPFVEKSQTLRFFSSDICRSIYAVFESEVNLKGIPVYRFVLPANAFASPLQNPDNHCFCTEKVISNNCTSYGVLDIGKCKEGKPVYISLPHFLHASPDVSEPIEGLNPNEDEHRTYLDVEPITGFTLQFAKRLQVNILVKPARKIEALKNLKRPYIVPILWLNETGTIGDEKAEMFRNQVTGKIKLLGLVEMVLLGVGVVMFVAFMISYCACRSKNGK
Platelet glycoprotein 4, sequence (Q07969 whole entry): as above

`C[C@H](NC(=O)[C@@H](Cc1c[nH]c2ccccc12)NC(=O)[C@@H](N)Cc1cnc[nH]1)C(=O)NN(Cc1ccc(Cl)cc1)C(=O)N[C@H](Cc1ccccc1)C(=O)N[C@@H](CCCCN)C(N)=O`: in series [1], the half-inhibitory concentration (IC50) came to 8.36 µM. Further, the inhibition entry in series [2] and in series [5] was “Active” throughout. The Activity entry in series [3] is listed as “Toxic”. This molecule also gave a fold change (FC) in series [4] of 3.4.

Usually IC50 stands for the point on the concentration scale where inhibition reaches its midpoint.
